Test results as given in patent US20120088698A1, “WATER IN OIL EMULSION, METHOD FOR THE PRODUCTION THEREOF” (CLARIANT FINANCE (BVI) LIMITED, priority 2009, published 2012).
Read-outs that look alike come from different tables or passages of the source.

Tests used:
Skelotonema Costatum [1] = details: in vivo
[2] = Biodegradability, OECD 306 test; details: OECD 306, 28 days
Skelotonema Costatum [3] = assay: Ecotoxicology, Protocol ISO 10253; details: for EC50: 72 hrs

CCCCCCCC/C=C\CCCCCCCCN1CC(C(=O)O)CC1=O.NCCO (centres unmarked) [OleylPyCOO-MEA, N-oleyl(pyrrolidine-2-one)-4-carboxylic acid/ethanol amine salt]
72 h EC90 (Skelotonema Costatum [1]): 0.58 µg/mL | NOEC@72 h (Skelotonema Costatum [1]): 0.32 mg/L | 48 h NOEC (Artica Tonsa; 48 h): 0.30 mg/L | 48 h LC90 (Artica Tonsa; 48 h, first figure of LC90/100): 4.2 µg/mL | 48 h LC100 (Artica Tonsa; 48 h, second figure of LC90/100): 9.0 mg/L | LC50 (Artica Tonsa; 48 hrs): 2.8 µg/mL | LC5@10 days (Corophium Volulator; 10 days): 433 mg/kg | NOEC @ 10 days (Corophium Volulator; in vivo): 160 mg/kg | Degradation (biodegradability) [2]: 69% | EC50 (Skelotonema Costatum [3]): 0.44 µg/mL

N-oleyl(pyrroildine-2-one)-4-carboxylic acid/morpholine distillation residue salt [OleylPyCOO-AmixM]
NOEC @ 10 days (Corophium Volulator; 10 days): 524 mg/kg | 72 h EC90 (Skelotonema Costatum [3]; 72 h): 3.0 µg/mL | NOEC@72 h (Skelotonema Costatum [3]; 72 h): 0.56 mg/L | EC50 (Skelotonema Costatum [3]): 1.6 µg/mL
